{
  "source": "patent US20260085315A1",
  "about": "“POLYNUCLEOTIDE COMPOSITIONS AND METHODS FOR TREATMENT OF CANCER” (APTAH BIO, INC., priority 2023, published 2026)",
  "assay_type_in_all_cases": "in vivo, athymic nude mice",
  "key": {"[1]": {"test_system": "Human Glioblastoma Cancer (U-87MG) xenograft", "test": "Histopathology of tumor samples with scoring", "design": "key: 1: Minimal Fibrosis; 2: Mild Fibrosis; 3: Moderate Fibrosis; 4: Prominent", "conditions": "individual animals; G3 APT20TTMG, G2 TMZ", "text": "(§1) The fixed tissues were processed for routine paraffin embedding followed by sectioning (3-6 micron). The sections were stained with hematoxylin and eosin. The prepared slides were examined under microscope by the study pathologist to record histopathological findings in tumor samples, related to capsule formation, cell type, connective tissue stroma, apoptosis, necrosis, lipid content, nucleus-to-cytoplasmic (N:C) ratio, nuclei mitotic figures, tumor grade, and level of differentiation. Each histopathological finding and tumor volume were assigned a score ranging from 1 to 4 (Table 7). The sum of these scores for each sample was used to infer the tumor aggressiveness."}, "[2]": {"test_system": "Human Glioblastoma Cancer (U-87MG) xenograft", "test": "Histopathology of tumor samples with scoring", "design": "key to Score: Grade: 1: I; 2: II; 3: III; 4: IV; key to Score: Connective tissue stroma: 1: Minimal Fibrosis; 2: Mild Fibrosis; 3: Moderate Fibrosis; 4: Prominent; key to Score: N:C ratio: 3: High; 2: Low to High; 1: Low; key to Score: Apoptosis / Score: Lipid content: 4: Minimal; 3: Mild; 2: Moderate; 1: Prominent", "conditions": "individual animals; G3 APT20TTMG, G2 TMZ", "text": "as §1"}, "[3]": {"test_system": "Human Glioblastoma Cancer (U-87MG) xenograft", "test": "Histopathology of tumor samples with scoring", "design": "key: 1: Few; 2: Moderate; 3: Large", "conditions": "individual animals; G3 APT20TTMG, G2 TMZ", "text": "as §1"}, "[4]": {"test_system": "Human Glioblastoma Cancer (U-87MG) xenograft", "test": "Human glioblastoma xenograft tumor growth", "conditions": "for tumor reduction in relation to the negative control: APT20TTMG 20 mg/kg i.v. q3d, TMZ 5 mg/kg p.o. daily", "description": "Subcutaneous inoculation of the tumorigenic Human Glioblastoma Cancer Cell line (U-87MG) results in the formation of solid tumor in athymic nude mice. Under pathogen free conditions, the tumor retains its own characteristics and grows using the growth factors supplied by the host animal. The ability of administered ASMO1 to inhibit the growth of tumor can be a valuable tool to evaluate its efficacy as an anti-tumor agent. Measurement of tumor size at defined intervals of time generates data that can be used to calculate various end point parameters derived from tumor and understand the potency of the test compounds.\nHuman glioblastoma cancer cells (U-87MG) were cultured and expanded in EMEM (Eagle's Minimum Essential Medium) supplemented with 10% Fetal Bovine Serum (FBS) at 37° C. and 5% CO2. The cells growing at log phase were harvested by trypsinization and centrifuged for 3 minutes at 800 rpm to form a pellet. The pellet was further washed with PBS. Cell suspension stock was prepared to obtain the required cell count. Before cell inoculation, cell viability was determined using trypan blue. 25 μL of cell suspension was stained with 25 μL of trypan blue and viable cells were counted using Neubauer's chamber. Cell number was adjusted by adding serum free media to achieve desired concentration, i.e., 10×10^7/mL.\nCells were diluted such that the concentration of the cells was 10 million cells/100 μL of serum free medium. Overnight thawed Matrigel and cells with medium were mixed 1:1 and a total volume of 200 μL was injected subcutaneously to the donor animals (n=5) at flank region.\nDonor animals were monitored for solid tumor growth for at least 3-4 weeks. Tumor size was measured using digital caliper (MITUTOYO, Japan, CP-15Mx) and volume was calculated by using the formula: (L*W2)/2. Once the tumor reached required size ˜500 mm^3, the donor animals were humanely sacrificed, the tumor was harvested and fragmented into ˜30 mg size and implanted subcutaneously to experimental animals (n=50) using the device. All the animals was monitored alternate day for tumor growth/size.\nOnce the tumor size reached ˜100 mm^3, animals were selected and randomized by stratification method using tumor size into three groups (G1-G3). Treatment for G1-G3 was initiated at this stage. Each group was comprised of 8 animals.\n• G1 was served as vehicle control group and treated with normal saline at the dose of 5 mL/kg, daily, intravenously for 3 weeks. • G2 was served as Reference Item treated group and treated with TMZ at the dose of 5 mg/kg, p.o., daily for 3 weeks. • G3 was treated with APT20TTMG at the dose of 20 mg/kg, intravenously, every third day (q3d) for 3 weeks.\nBody weight and tumor size were measured weekly twice using digital caliper. At termination, blood was collected through retro-orbital route. Serum/plasma was separated and stored at deep freezer (−20° C.). Post blood collection, animals were humanely sacrificed by CO2 asphyxiation as per latest guidelines issued by CPCSEA. All the vital organ (brain, kidney, liver, lungs, heart) and tumor were dissected out. Vital organs were fixed in 10% NBF and stored. Tumor tissue was dissected out, weighed and portion of tumor tissue was fixed in 10% NBF and another portion is snap frozen and stored at deep freezer (−80° C.).\nAs shown in FIG. 34A-C, tumor fragments from the U-87MG cell line were implanted in the animals and once the tumor size reached ˜100 mm^3 animals were randomized into 3 experimental groups (G1, G2, and G3). G1: Vehicle, (G2) Reference Item Temozolomide, and (G3) APT20TTMG for a total of 22 days. (A) The tumor volume of the animals was measured twice/a week. (B) Animals were weighed throughout the experiment and the change in weight gain compared to pre-treatment weight was plotted. (C) After the euthanasia of the animals, the tumors were removed and weighed."}, "[5]": {"test_system": "Human Glioblastoma Cancer (U-87MG) xenograft", "test": "Histopathology of tumor samples with scoring", "design": "key: 4: Minimal; 3: Mild; 2: Moderate; 1: Prominent", "conditions": "individual animals; G3 APT20TTMG, G2 TMZ", "text": "as §1"}},
  "note": "Values joined by “and” are separate entries in the source; they are usually repeats but may differ in a detail not shown here. Equal entries are not always repeated. “Also recorded” adds a separate entry of the source.",
  "data": [
    {"smiles": "Cn1nnc2c(C(N)=O)ncn2c1=O", "note": "[TMZ, Temozolomide, reference compound]", "values": [
      {"measurement": "Score: Necrosis", "setting": "[1]", "result": 4},
      {"measurement": "Histopathological findings: Grade", "setting": "[2]", "result": "Grade- 2; also recorded: Grade- 3"},
      {"measurement": "Score: Apoptosis", "setting": "[2]", "result": "3 (7×) and 2"},
      {"measurement": "Score: Connective tissue stroma", "setting": "[2]", "result": "3 (2×) and 2 (5×) and 1"},
      {"measurement": "Score: Grade", "setting": "[2]", "result": "2 (5×) and 3 (3×)"},
      {"measurement": "Score: Lipid content", "setting": "[2]", "result": "3 (4×) and 2 and 1 (3×)"},
      {"measurement": "Score: N:C ratio", "setting": "[2]", "result": 2},
      {"measurement": "Score: Volume Tumor", "setting": "[2]", "result": "4 (>1500) and 1 (<500) (2×) and 2 (500-1000) (2×) and 3 (1000-1500) (3×)"},
      {"measurement": "Score: Mitotic figures", "setting": "[3]", "result": "3 (4×) and 1 (4×)"},
      {"measurement": "tumor reduction in relation to the negative control", "setting": "[4]; day 20", "result": "41.3±11.1", "unit": "%"},
      {"measurement": "tumor reduction in relation to the negative control", "setting": "[4]; day 22", "result": "31.1±13.4", "unit": "%"},
      {"measurement": "Volume (tumor)", "setting": "[4]; individual animals, G3 APT20TTMG, G2 TMZ", "result": "Volume 1593.8; also recorded: Volume 113.1; also recorded: Volume 937.9; also recorded: Volume 339.1; also recorded: Volume 1447.2; also recorded: Volume 830.6; also recorded: Volume 1277.9; also recorded: Volume 1479.7"},
      {"measurement": "Score: Necrosis", "setting": "[5]", "result": 3}
    ]}
  ]
}
